Read-outs that look alike come from different tables or passages of the source.
How the values were obtained:
HepaRG spheroids = test: Combined HCI (HCS) and cellular ATP 3D assay in HepaRG spheroids; details: for AC50 / minimal effective concentration: Homo sapiens
hLiMTs [1] = details: cited from earlier work
[2] = cited from earlier work
[3] = plasma free fraction; cited from earlier work
[4] = test system: THLE or HepG2 cells, isolated mitochondria, BSEP; details: cited from earlier work
hLiMTs [5] = test: Combined HCI (HCS) and cellular ATP 3D assay in hLiMTs; details: for AC50 / minimal effective concentration: Homo sapiens
PHH = details: cited from earlier work
[6] = test system: HepG2 C3A spheroid, BSEP, Glu/Gal in HepG2 cells, bioactivation; details: cited from earlier work
[7] = cited from earlier work; remark: listed apart in the source
[8] = read-out: Human plasma Cmax; total plasma Cmax.tot, median of 9 literature references; cited from earlier work
[9] = Plasma free fraction (fu) and unbound Cmax (Cmax,u); assay type: in vitro ADME, human; details: unbound plasma Cmax
Experimental: The prediction of DILI severity was evaluated further using the 3D combined HCI assays using plasma-free fraction. The majority of fu values were obtained from literature, when unavailable in-house prediction was utilised. Unbound plasma Cmax concentrations (Cmax,u) were derived by multiplying total plasma Cmax with the corresponding free fraction (fu) for each compound.

[10] = test system: primary human hepatocytes, NIH3T3 fibroblasts, BSEP, CYP3A4; details: cited from earlier work
[11] = Microtissue model structural based (HCI), combined HCS and ATP, MEC < 25 × Cmax.tot cut-off
[12] = In vitro Assay, ref Proctor 2017
[13] = Modeled in vitro assays (cytotoxicity, mitochondrial dysfunction, BSEP), ref Aleo et al. 2019
[14] = In vitro Assay, ref Schadt 2015

CCN(CC)C(=O)/C(C#N)=C/c1cc(O)c(O)c([N+](=O)[O-])c1 [entacapone]
HepaRG <25x Avg Cmax ATP (HepaRG spheroids; HepaRG, ATP endpoint, cut-off <25x Avg Cmax): +ve
HepaRG <100x Avg Cmaxu ATP (HepaRG spheroids; HepaRG, ATP endpoint, cut-off <100x Avg Cmaxu): -ve
HepaRG <25x Avg Cmax HCS (HepaRG spheroids; HepaRG, HCS endpoints, cut-off <25x Avg Cmax): +ve
HepaRG <100x Avg Cmaxu HCS (HepaRG spheroids; HepaRG, HCS endpoints, cut-off <100x Avg Cmaxu): -ve
HepaRG <25x Avg Cmax All (HepaRG spheroids; HepaRG, all endpoints (ATP and HCS), cut-off <25x Avg Cmax): +ve
HepaRG Cmax max All (HepaRG spheroids; HepaRG, all endpoints, Cmax max used): +ve
HepaRG Cmax min All (HepaRG spheroids; HepaRG, all endpoints, Cmax min used): +ve
HepaRG <10 uM All (HepaRG spheroids; HepaRG, all endpoints, cut-off <10 uM): -ve
HepaRG <100x Avg Cmaxu All (HepaRG spheroids; HepaRG, all endpoints, cut-off <100x Avg Cmaxu): -ve
AC50 (HepaRG spheroids; HepaRG, read-out: ATP endpoint AC50): 115 µM
minimal effective concentration (HepaRG spheroids; HepaRG, read-out: ATP endpoint MEC): 45.5 µM
AC50 (HepaRG spheroids; HepaRG, read-out: HCS endpoint AC50): 129 µM
minimal effective concentration (HepaRG spheroids; HepaRG, read-out: HCS endpoint MEC): 45.4 µM
DILI prediction HepaRG spheroids (HCS-MEC) (HepaRG spheroids; [11]): +VE (MEC < 25 × Cmax.tot cut-off)
hLiMTs ATP <100uM (hLiMTs [1]; [12]): -VE
hLiMTs/100xCmax, Proctor (2017) (hLiMTs [1]; hLiMTs, ATP, IC50 < 100 × Cmax.tot, ref Proctor et al. 2017): +VE (IC50 < 100 × Cmax.tot)
hLiMTs/100uM, Proctor (2017) (hLiMTs [1]; hLiMTs, ATP, IC50 threshold 100 µM, ref Proctor et al. 2017): -VE
Assigned DILI category ([2]; Chen et al. 2016 or literature alignment, ref Chen et al. 2016): 2
In vivo DILI ([2]; ref Aleo 2019): +VE
In vivo DILI ([2]; ref Proctor 2017): -VE
In vivo DILI ([2]; ref Schadt 2015): -VE
In vivo DILI ([2]; ref Williams 2019): -VE
fu [3]: 0.020
Partition Hybrid HRM Score ([4]; In vitro Assay, ref Aleo 2019): +VE
Ro2 Hybrid HRM Score ([4]; In vitro Assay, ref Aleo 2019): +VE
Partition Hybrid HRM Score ≥4, Aleo (2019) [4, 13]: +VE (Partition Hybrid HRM Score ≥4)
Partition Hybrid HRM Score ≥8, Aleo (2019) [4, 13]: +VE (Partition Hybrid HRM Score ≥8)
Rule of Two hybrid HRM Score ≥3, Aleo (2019) [4, 13]: +VE (Rule of Two hybrid HRM Score ≥3)
Rule of Two hybrid HRM Score ≥8, Aleo (2019) [4, 13]: -VE
AC50 (hLiMTs [5]; read-out: ATP endpoint AC50): 150 µM
minimal effective concentration (hLiMTs [5]; read-out: ATP endpoint MEC): 125 µM
AC50 (hLiMTs [5]; read-out: HCS endpoint AC50): 139 µM
minimal effective concentration (hLiMTs [5]; read-out: HCS endpoint MEC): 88.8 µM
DILI prediction hLiMTs (HCS-MEC) (hLiMTs [5]; [11]): +VE (MEC < 25 × Cmax.tot cut-off)
hLiMTs <25x Avg Cmax ATP (hLiMTs [5]; hLiMTs, ATP endpoint, cut-off <25x Avg Cmax): -ve
hLiMTs <100x Avg Cmaxu ATP (hLiMTs [5]; hLiMTs, ATP endpoint, cut-off <100x Avg Cmaxu): -ve
hLiMTs <25x Avg Cmax HCS (hLiMTs [5]; hLiMTs, HCS endpoints, cut-off <25x Avg Cmax): +ve
hLiMTs <100x Avg Cmaxu HCS (hLiMTs [5]; hLiMTs, HCS endpoints, cut-off <100x Avg Cmaxu): -ve
hLiMTs <25x Avg Cmax All (hLiMTs [5]; hLiMTs, all endpoints (ATP and HCS), cut-off <25x Avg Cmax): +ve
hLiMTs Cmax max All (hLiMTs [5]; hLiMTs, all endpoints, Cmax max used): +ve
hLiMTs Cmax min All (hLiMTs [5]; hLiMTs, all endpoints, Cmax min used): -ve
hLiMTs <10 uM All (hLiMTs [5]; hLiMTs, all endpoints, cut-off <10 uM): -ve
hLiMTs <100x Avg Cmaxu All (hLiMTs [5]; hLiMTs, all endpoints, cut-off <100x Avg Cmaxu): -ve
PHH/100xCmax, Proctor (2017) (PHH; 2D PHH, ATP, IC50 < 100 × Cmax.tot, ref Proctor et al. 2017): +VE (IC50 < 100 × Cmax.tot)
PHH/100uM, Proctor (2017) (PHH; 2D PHH, ATP, IC50 threshold 100 µM, ref Proctor et al. 2017): -VE
PHH ATP <100uM (PHH; [12]): +VE (IC50 threshold of 100 µM)
Bayesian Machine Learning DILI prediction, Williams (2019) ([6]; Bayesian modeling, ref Williams et al. 2019): -VE
Bayesian Machine Learning ([6]; In vitro Assay, ref Williams 2019): -VE
DILI severity category (Chen et al. [2016]) ([7]; LTKB DILIrank category, ref Chen et al. 2016): Less
DILI severity category (Chen 2016) ([7]; human DILI classification, LTKB DILIrank, ref Chen et al. 2016): Less
DILI severity category ([7]; human DILI severity, ref Chen et al.): Less
DILI +VE (5-8), DILI -VE (-4) ([7]; ref Chen 2016): +VE
DILI severity category ([7]; ref Chen 2016): vLess-DILI-Concern
Cmax [8]: 3.59 µM
Human plasma Cmax,u [9]: 0.072 µM
DILI in vitro assay prediction, Schadt (2015) ([10]; BSEP & Metabolism based, ref Schadt et al. 2015): -VE
Cellular toxicity (3T3 cells) [10, 14]: -VE
Combined Assay [10, 14]: -VE
GSH adduct HML [10, 14]: -VE
Hepatocyte cellular toxicity [10, 14]: -VE
MitoTox 3T3 [10, 14]: -VE
TDI CYP3A4 [10, 14]: -VE
hBSEP inhibition [10, 14]: -VE

From paper PMC7395068, “The evolution of strategies to minimise the risk of human drug-induced liver injury (DILI) in drug discovery and development” (Archives of Toxicology, 2020)
